# Source: ChEMBL document CHEMBL1201862, “PubChem BioAssay data set” (2004)
# Active and inactive are the calls of the source. Rule as the data show it: actives have a measured IC50 and inactives only a lower limit.
# Target: Envelope glycoprotein gp160 (Human immunodeficiency virus 1, UniProt Q6QLK5)
# Assay: inhibitors of HIV fusion peptide binding, primary screen, biochemical, uHTS, fluorescence dequenching (AID 1986)
# Envelope glycoprotein gp160, sequence (Q6QLK5 whole entry, the tested form may be a part): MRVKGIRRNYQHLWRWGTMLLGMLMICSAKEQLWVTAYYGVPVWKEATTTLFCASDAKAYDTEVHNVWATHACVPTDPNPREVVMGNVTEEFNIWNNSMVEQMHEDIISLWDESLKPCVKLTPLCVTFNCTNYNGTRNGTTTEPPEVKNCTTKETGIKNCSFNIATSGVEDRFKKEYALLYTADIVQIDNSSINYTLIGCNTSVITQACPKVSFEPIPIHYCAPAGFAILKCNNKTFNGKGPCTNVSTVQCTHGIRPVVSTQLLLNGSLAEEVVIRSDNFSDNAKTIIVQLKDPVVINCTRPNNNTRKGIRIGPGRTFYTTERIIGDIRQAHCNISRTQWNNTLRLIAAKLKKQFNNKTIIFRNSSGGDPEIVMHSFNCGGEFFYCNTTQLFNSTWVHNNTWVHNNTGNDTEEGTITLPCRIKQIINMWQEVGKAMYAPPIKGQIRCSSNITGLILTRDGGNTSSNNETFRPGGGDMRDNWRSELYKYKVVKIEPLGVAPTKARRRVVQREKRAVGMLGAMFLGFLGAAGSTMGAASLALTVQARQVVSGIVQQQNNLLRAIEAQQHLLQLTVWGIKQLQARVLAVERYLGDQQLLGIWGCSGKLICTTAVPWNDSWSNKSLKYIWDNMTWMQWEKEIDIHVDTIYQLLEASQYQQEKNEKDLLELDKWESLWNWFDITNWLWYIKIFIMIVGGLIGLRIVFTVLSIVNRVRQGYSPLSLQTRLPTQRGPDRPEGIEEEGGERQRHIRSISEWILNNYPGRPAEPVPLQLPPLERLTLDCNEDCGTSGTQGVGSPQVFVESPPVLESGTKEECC
compound,measurement,value
Cc1ccccc1C(=O)Nc1cccc(C(=O)N/N=C/c2cc(Cl)cc([N+](=O)[O-])c2O)c1,IC50,31.3 µM (active)
